The values that follow come from US5232922A, “Imidazole compounds, processes for their preparation, pharmaceuticals based on these compounds and some intermediates” (priority 1990, dated 1993).

Data set [1] can be described thus: Acute toxicity (LD50 range). The following applies: mouse, in vivo, single administration, NMRI mice, 7 days. The protocol: The determination of the LD50 ranges was carried out in standard fashion by means of the mortality occurring in the course of 7 days in NMRI mice after single intravenous (i.v.) or intraperitoneal (i.p.) administration (NMRI=NIH Medical Research Institute).

Data set [2] has as its system skeletal muscle of the rat (chronic ischemic). In words: Effect on the contractility of the skeletal muscle after chronic ischemia (tiring index). In kind it is in vivo, rat (male Wistar). The following applies: 6 mg/kg p.o. over 7 days, n = 4-6; for TI of ischemic treated muscle: tiring index = maximum contractility / residual force after 5 min stimulation; for change in vivo at 6 mg/kg: Rattus norvegicus, po, 168 h, smaller value = more effective, read-out: Percentage change (TI of ischemic treated muscle vs TI of normal non-treated muscle). An excerpt:
1) Effect on the Contractility of the Skeletal Muscle After Chronic Ischemia
In recent years, a marked change has taken place in ideas about the pathophysiology of chronic peripheral arterial occlusive disease as scientific interest has to an increasing extent shifted from the macrocirculation to the microcirculation. Disturbances in the microcirculation therefore manifest themselves in an undersupply of substrates with tissue ischemia resulting therefrom which, in turn, leads to an impairment in the function of the extremity concerned. The logical consequence of this is that the target organ skeletal muscle comes more and more into the forefront. […] The clinical activity is in fact also consistently determined in humans with the aid of the painless walking distance on the moving walkway.
Male Wistar rats having a body weight of 380 to 410 g were used as experimental animals. Under hexobarbital anesthesia (®Evipan--sodium, 200 mg/kg BW (=body weight) i.p.), a unilateral ligature of the right femoral artery was applied to the animals in the groin. After sprinkling penicillin sulfonamide powder for antibiotic wound care, the small operation wound was closed and the animals were continuously observed until they were completely awake. One week later, the administration of substance began by oral administration using a stomach tube (6 mg/kg BW, carboxymethylcellulose-sodium suspension) and was continued for 7 days (single administration per day, about 7h30 to 8h30). The contractility was measured 24 h after the last administration of substance in order to exclude acute effects, to be precise by the following experimental protocol:
Superfusion with physiological saline solution (37° C.) was used to avoid drying out and cooling. The mean arterial blood pressure was recorded continuously via Statham (=blood pressure measuring device) by means of a cannulated caroted artery to control the physiological status of the animals during the experiment. All animals breathed spontaneously by means of an inserted tracheal tube.
After these preparations, the muscle was made to contract (Stimulator I, Hugo Sachs, Federal Republic of Germany) by direct electrical stimulation (2.5 mA, 2 Hz). The absolute contractility in grams at various times of stimulation was used as the measured parameter. […] If the maximum contractility at the start of stimulation is now divided by the residual force remaining after 5 minutes' tiring stimulation, a "tiring index TI" for the muscle concerned can be calculated; the ability to tire here is larger the larger TI is numerically.
4 to 6 individual experiments were carried out for each test preparation.

Data set [3] concerns laser-induced thrombosis in mesenterial arterioles. Kind of data set: Inhibition of laser-induced thrombosis in mesenterial arterioles of the rat. The data set is classed as in vivo, rat (female Sprague-Dawley). The following applies: Rattus norvegicus, po, read-out: Percentage change vs control (inhibition of laser-induced thrombosis); for inhibition in vivo at 10 mg/kg: 10 mg/kg p.o.; for inhibition in vivo at 20 mg/kg: 20 mg/kg p.o.

The test system of data set [4] is photochemically-induced thrombosis in mesenterial arterioles. Kind of data set: Inhibition of photochemically-induced thrombosis in mesenterial arterioles. In kind it is in vivo, rat. The protocol:
In this model, rats were anesthetized as described above under 2). The investigations were carried out on mesenterial arterioles having a diameter of 11 to 50 lm. A thrombosis was induced in a modification in accordance with a method known from the literature (Herrmann, K. H. Microvasc. Res. 26, 238-249, 1983) and is based on the photochemical release of singlet oxygen, which leads locally to an endothelial lesion. The animals to be investigated received an intravenous injection of 0.3 ml of a 10% strength solution of fluorescein in isothiocyanate--Dextran 70 (FITC--Dextran 70 s, Sigma, Munich). The arterole was looked for under the microscope and centered in the observation field. The FITC--Dextran in the blood vessel was then excited using a special lamp and filter device (excitation 490 nm, emission 510 nm). For evaluation of thrombus formation, the time was taken which extended from the point of excitation to the formation of a first thrombus on the wall. 5 vessels in each animal were examined in this manner.

Data set [5] deals with capillary bed of the skeletal muscle of the rat. Kind of data set: Laser-Doppler flow measurement of erythrocyte flux in acutely ischemic skeletal muscle. In kind it is in vivo, rat (male Wistar). Particulars: during occlusion. The protocol: Using laser-Doppler flow measurements (LDF), the erythrocyte flux (the number of cells flowing past under the laser beam x their velocity) can be measured in a noninvasive and continuous manner in the capillary bed of the skeletal muscle of the rat (perimed PF2 laser-Doppler flowmeter, Perimed, Sweden). […] The apparatus was set as follows: 12 kHz, gain 10, time constant 1.5 sec, 37° C. The right femoral artery of male Wistar rats having a body weight of 380-430 g was exposed and the skin and the connective tissue was dissected away over a small muscle area (anterior tibia). The probe was placed about 1 mm above this area. […] At this point, the test substances were infused intravenously in aqueous solution (0.03 and 0.6 mg/kg/min). The maximum percentage increase in the erythrocyte flux after administration of substance during the occlusion (see also Okyayuz-Baklouti, I., European J. of Pharmacology, 166: 75-86, 1989) was used as the measuring parameter for the substance activity. […] 3-7 animals were employed per preparation and dose.

The test system of data set [6] is acutely ischemic muscle. In words: Contractility in the acutely ischemic muscle. In kind it is in vivo. Particulars: i.v. The protocol:
The contractility in the acutely ischemic muscle was measured in a similar experimental procedure, as described under 1). The muscle, initially normally supplied with blood, was made to contract isometrically by direct electrical stimulation (1.2 Hz, 2.5 mA). The right femoral artery was then occluded for 5 min by means of a clamp. […] The vessel was then reopened and the starting contractility before the first occlusion was attained. During the second occlusion which then followed, the preparations to be tested were administered intravenously in aqueous solution via the jugular vein. 4-8 animals were employed per preparation and dose. The decrease in the contractility during occlusion with and without substance administration was compared and the percentage change was used to evaluate the substance activity. The substances according to the invention, for example the compound of Example 7, were also remarkable in this test for outstanding effects.

A word on the LD50: it is the dose expected to kill half of the subjects tested. As to `Cl.Cn1cnc(S(=O)(=O)NCCCN2CCOCC2)c1Cl` [Example 32, N-(3-Morpholinopropyl)-5-chloro-1-methyl-4-imidazolesulfonamide hydrochloride], the LD50 at 168 h in data set [1] (iv) was above 200 mg/kg. Also, in data set [2], the “TI of ischemic treated muscle” value is reported as 2.51 and the change in vivo at 6 mg/kg was determined as 6.4%. Also, the inhibition in vivo at 10 mg/kg in data set [3] came to 21%.

Turning to `Cl.Cn1cnc(S(=O)(=O)NCCCCCN2CCOCC2)c1Cl` [Example 34, N-(5-Morpholino-1-pentyl)-5-chloro-1-methyl-4-imidazolesulfonamide hydrochloride], the LD50 at 168 h in data set [1] (iv) is above 100 mg/kg. For the same compound, in data set [2], the “TI of ischemic treated muscle” value is on record as 1.98 and the change in vivo at 6 mg/kg amounted to 0%. Besides, in data set [3], the inhibition in vivo at 10 mg/kg came to 15%.

On to `Cl.Cn1cncc1S(=O)(=O)NCCCN1CCOCC1` [Example 53, N-(3-Morpholino-1-propyl)-1-methyl-5-imidazolesulfonamide hydrochloride], for which, in data set [1] (iv), the median lethal dose (LD50) at 168 h was above 100 mg/kg. Also, in data set [2], the “TI of ischemic treated muscle” value was 3.18 and the change in vivo at 6 mg/kg is -3.3%. The inhibition in vivo at 10 mg/kg in data set [3] amounted to 18%.

`Cn1cnc(S(=O)(=O)O)c1Cl` [Example 1, 5-Chloro-1-methyl-4-imidazolesulfonic acid] gave an LD50 at 168 h in data set [1] (iv) above 200 mg/kg. In data set [2], the “TI of ischemic treated muscle” value turned out to be 2.26 and the change in vivo at 6 mg/kg turned out to be 1.3%. In data set [3], the inhibition in vivo at 10 mg/kg stood at 13%.

Take `CN1CCN(CCCNS(=O)(=O)c2cn(C)cn2)CC1` [Example 27, N-[3-(4-Methylpiperazino)propyl]-1-methyl-4-imidazolesulfonamide dihydrogenfumarate]: the LD50 at 168 h in data set [1] (iv) was above 100 mg/kg. In addition, in data set [2], the “TI of ischemic treated muscle” value was 2.6 and the change in vivo at 6 mg/kg came out at 32.6%. Further, in data set [3], the inhibition in vivo at 20 mg/kg is 23%.

Regarding `Cl.Cn1ccnc1S(=O)(=O)NCCN1CCOCC1` [Example 30, N-(2-Morpholinoethyl)-1-methyl-2-imidazolesulfonamide hydrochloride], the LD50 at 168 h in data set [1] (iv) was above 100 mg/kg. Moreover, in data set [2], the “TI of ischemic treated muscle” value was 2.82 and the change in vivo at 6 mg/kg was -14.2%. For the same compound, the inhibition in vivo at 10 mg/kg in data set [3] came to 45%.

Regarding `Cl.Cn1cnc(S(=O)(=O)NCCCCN2CCOCC2)c1` [Example 10, N-(4-morpholinobutyl)-1-methyl-4-imidazolesulfonamide hydrochloride], in data set [1] (iv), the LD50 at 168 h was above 100 mg/kg. Besides, in data set [2], the “TI of ischemic treated muscle” value turned out to be 2.19 and the change in vivo at 6 mg/kg was -3.6%. Also, in data set [3], the inhibition in vivo at 10 mg/kg stood at 38%.

Regarding `Cn1cnc(S(=O)(=O)N2CCN(c3ccc(O)cc3)CC2)c1` [Example 25], the LD50 at 168 h in data set [1] (ip) is above 300 mg/kg. Moreover, in data set [2], the “TI of ischemic treated muscle” value is 2.11 and the change in vivo at 6 mg/kg was found to be 6.6%. Further, the inhibition in vivo at 10 mg/kg in data set [3] came to 22%.

In data set [1] (iv), `Cl.Cn1ccnc1S(=O)(=O)NCCCN1CCOCC1` [Example 29, N-(3-Morpholinopropyl)-1-methyl-2-imidazolesulfonamide hydrochloride] came in with an LD50 at 168 h above 100 mg/kg. In data set [2], the “TI of ischemic treated muscle” value amounted to 2.74 and the change in vivo at 6 mg/kg worked out at 38.4%. In data set [3], the inhibition in vivo at 10 mg/kg was 21%.

The compound `Cn1cnc(S(=O)(=O)NCCCCCCNS(=O)(=O)c2cn(C)cn2)c1` [Example 54, 1,6-Bis(1-methyl-4-imidazolesulfonamido)hexane] gave an LD50 at 168 h in data set [1] (ip) above 1200 mg/kg. Moreover, in data set [2], the “TI of ischemic treated muscle” value amounted to 2.55 and the change in vivo at 6 mg/kg amounted to 37.8%. The inhibition in vivo at 10 mg/kg in data set [3] worked out at 17%.

On to `CC(=O)CCCCn1c(=O)c2c(ncn2C)n(C)c1=O` [Pentoxyfylline, 1-(5-oxohexyl)-3,7-dimethylxanthine, reference compound], for which the “inhibition of photochemically-induced thrombosis” value is recorded as 29% in data set [4] (1 mg/kg p.o.); 3% in data set [4] (3 mg/kg i.v.); 18% in data set [4] (3 mg/kg p.o.); 38% in data set [4] (10 mg/kg i.v.); 68% in data set [4] (10 mg/kg p.o.). Besides, the “maximum percentage increase in the erythrocyte flux” value in data set [5] (0.03 mg/kg/min i.v. infusion) stood at 24.6%; in data set [5] (0.6 mg/kg/min i.v. infusion) it was 33.1%. Also, the “TI of ischemic treated muscle” value in data set [2] is listed as 3.20. The change in vivo at 6 mg/kg in data set [2] worked out at 43.5%. In data set [6], the “activity in acute ischemic muscle contractility test (in words)” value is listed as “only showed marginal activity”.

In turn, `Cn1cnc(S(=O)(=O)NCCc2ccc(O)cc2)c1Cl` [Example 46, N-(4-hydroxyphenethyl-)-5-chloro-1-methyl-4-imidazolesulfonamide] came in with an LD50 at 168 h in data set [1] (ip) above 1200 mg/kg. Also, in data set [2], the “TI of ischemic treated muscle” value came out at 2.05 and the change in vivo at 6 mg/kg is -6.4%. Also, the inhibition in vivo at 10 mg/kg in data set [3] stood at 29%. Further, the inhibition in vivo at 30 mg/kg in data set [3] (30 mg/kg p.o.) is 29%.

In data set [1] (iv), `Cl.Cn1cnc(S(=O)(=O)NCc2ccc(CN3CCOCC3)cc2)c1` [Example 14, N-[4-(morpholinomethyl)benzyl]-1-methyl-4-imidazolesulfonamide hydrochloride] displayed an LD50 at 168 h above 100 mg/kg. Also, in data set [2], the “TI of ischemic treated muscle” value was 2.57 and the change in vivo at 6 mg/kg amounted to 13.4%. Further, the inhibition in vivo at 20 mg/kg in data set [3] stood at 13%.

`Cn1cnc(S(=O)(=O)N2CCN(c3ccc(O)cc3)CC2)c1Cl` [Example 40] displayed an LD50 at 168 h in data set [1] (ip) above 1200 mg/kg. Moreover, in data set [2], the “TI of ischemic treated muscle” value came to 3.18 and the change in vivo at 6 mg/kg was 34.7%. Also, the inhibition in vivo at 10 mg/kg in data set [3] is 17%.
